Results from US7452678B2, “Identification of biomarkers for liver toxicity” (Bristol-Myers Squibb Company, priority 2003, dated 2008).

What was measured:
THLE-5B-3A4 [1] = test system: THLE-5B-3A4
Method: When the cells reached confluence, the medium was removed by aspiration, and replaced with 30 ml of serum and transferrin free PMRF-4 medium (SFM) containing either vehicle (0.5% DMSO) or compound in 0.5% DMSO.
Cells were incubated for 20 hr at 37° C. Conditioned media (i.e., media incubated with cells) was collected by decanting, then syringe-filtered through 0.22 μm membrane, and stored at −70° C. before preparation for LC/LC/MS/MS analysis.
Following electrophoresis, the proteins were transferred to PVDF membrane at 30 V for 1 hr. […] Following incubation with an anti-rabbit secondary antibody (1:5000 dilution, Sigma), bands were visualized using an enhanced chemiluminescent detection system (ECL+, Amersham, Piscataway, N.J.) and imaged using a cooled charge-coupled device camera (Fluor S-Max, Bio-Rad, Hercules, Calif.). The signals from the blots were quantified using Quantity One software (Bio-Rad).
Conditioned media samples used to identify the proteins were assayed by blotting to determine presence and relative concentrations of the proteins as a function of each treatment. This was done to verify the accuracy of the mass spectral data (Table 3) and to increase the precision of the quantitative measurements.

THLE-5B-3A4 [2] = assay: LC/LC/MS/MS peptide hits of biomarker polypeptides in conditioned media of treated hepatocytes; assay type: cell-based, human; details: 20 hr, concentrations of Table 1
Method: Cells were incubated for 20 hr at 37° C.
Following a single thaw in a 1 L cylinder of water at room temperature, the filtered media were concentrated by centrifugal filtration (10 kDa, Pall Gelman Laboratory, Ann Arbor, Mich.). […] After reduction, 500 nmol of iodoacetamide (Sigma) was added to each sample and incubated in the dark at room temperature for an additional 30 min. Finally, samples were diluted four-fold and 20 μg of TPCK-treated porcine trypsin (Promega, Madison, Wis.) was added to each sample prior to incubation for 18 hr at 37° C. Samples were subsequently desalted using separate C18 spin columns (Nest Group, Southboro, Mass.) before injection onto the LC/LC/MS/MS system.
The capillary column was first packed with 10 cm of C18 reversed-phase material (SelfPack Poros 10 R2, ABI, Framingham, Mass.), and this was followed by 5 cm of strong cation exchange material (Poros 20 HS SCX, ABI). A load of 200 μg of digested material, based on the total protein assay, was used for each analysis.
Each analysis included a salt step, followed by buffer wash, then a reversed phase run of increasing organic concentration. Following the completion of each successive reversed phase gradient, the salt concentration was increased, and the cycle was begun again (FIG. 2).
This separation included a 100 min analysis with a gradient of 0-40% Buffer A to B for 0 to 75 min, 40-100% B for 75-85 min, 100-0% B for 85-90 min, and finally a re-equilibration hold at 0% B for 90-100 min. The aforementioned gradients were delivered by a binary pump (1100, Agilent, Wilmington, Del.), which was split 1:200 prior to connection to the capillary column.
The mass spectrometer's capillary temp was set to 200° C., and the spray voltage was set to 2 kV. In survey scan mode, two microscans were used to acquire 9e^7 counts, with a maximum acquisition time of 1000 msec. In MS/MS mode, 3 microscans were used to acquire 2e^7 counts, with a maximum acquisition time of 300 msec. The instrument was set to trigger data dependent fragmentation of the three most intense ions detected during the MS survey scan.
The output file from the […] program was then downloaded to desktop spreadsheet programs for further statistical analysis (Excel, Microsoft, Redmond, Wash.).

[3] = Cytotoxicity in the hepatocyte culture system, inhibition of ATP synthesis (CellTiter-Glo bioluminescence); assay type: cell-based, human; details: human; hepatotoxic drugs were dosed at their IC50 for cytotoxicity, inhibition of ATP synthesis as endpoint; read-out: Concentration (IC50 value for cytotoxicity)
Excerpt: (§1) These immortalized cells are reported to be similar to quiescent normal human hepatocytes. […] The THLE-5 cell line (also named THLE-5B) was previously deposited under the terms and conditions of the Budapest Treaty at the American Type Culture Collection on Apr.
(§2) The cell line THLE-5B-3A4, which expresses the 3A4 isoform of cytochrome P450, was derived by transfection of THLE-5B-c15 with a CMV expression vector comprising a human cDNA coding for the specific P450 isoenzyme and a selection marker, using methods known in the art.
(§3) For the purposes of this study, the non-hepatotoxic drugs were administered at 50 μM (Table 1).

HHA Cells = assay: as above; assay type: cell-based, human
Excerpt: as §1, §2, §3

[4] = Table 1, 8 treatments of the discovery panel
[5] = Table 2, panel of 20 treatments

SMILES: CC1(COc2ccc(CC3SC(=O)NC3=O)cc2)CCCCC1 (stereo not shown) [Ciglitazone]
- change in levels of BMS-PTX-265 (THLE-5B-3A4 [1]): statistically significant (p<0.05) increase
- peptide hits BMS-PTX-062 (THLE-5B-3A4 [2]): 27
- peptide hits BMS-PTX-120 (THLE-5B-3A4 [2]): 44
- peptide hits BMS-PTX-225 (THLE-5B-3A4 [2]): 25
- peptide hits BMS-PTX-254 (THLE-5B-3A4 [2]): 28
- peptide hits BMS-PTX-260 (THLE-5B-3A4 [2]): 24
- peptide hits BMS-PTX-265 (THLE-5B-3A4 [2]): 93
- peptide hits BMS-PTX-447 (THLE-5B-3A4 [2]): 82
- peptide hits BMS-PTX-459 (THLE-5B-3A4 [2]): 31
- peptide hits BMS-PTX-607 (THLE-5B-3A4 [2]): 6
- peptide hits BMS-PTX-749 (THLE-5B-3A4 [2]): 142
- peptide hits BMS-PTX-808 (THLE-5B-3A4 [2]): 14
- peptide hits BMS-PTX-837 (THLE-5B-3A4 [2]): 25
- peptide hits BMS-PTX-860 (THLE-5B-3A4 [2]): 9
- peptide hits BMS-PTX-(29)147 (THLE-5B-3A4 [2]): 239
- peptide hits BMS-PTX-(39)147 (THLE-5B-3A4 [2]): 36
- IC50 [3]: 38 µM
- Toxicity in HHA Cells (HHA Cells; [4]): Toxic
- Toxicity in HHA Cells (HHA Cells; [5]): Toxic

SMILES: O=C1CN(/N=C/c2ccc(-c3ccc([N+](=O)[O-])cc3)o2)C(O)=N1 [Dantrolene]
- Toxicity in HHA Cells (HHA Cells; [5]): Toxic

SMILES: O=C(O)Cc1ccccc1Nc1c(Cl)cccc1Cl [Diclofenac]
- Toxicity in HHA Cells (HHA Cells; [5]): Non-Toxic

SMILES: C#C[C@]1(O)CC[C@H]2[C@@H]3CCc4cc(O)ccc4[C@H]3CC[C@@]21C [Ethinyl Estradiol]
- Toxicity in HHA Cells (HHA Cells; [5]): Non-Toxic

SMILES: Cc1oc(-c2ccccc2)nc1CCOc1ccc(C[C@H](Nc2ccccc2C(=O)c2ccccc2)C(=O)O)cc1 [Farglitazar]
- change in levels of BMS-PTX-265 (THLE-5B-3A4 [1]): statistically significant (p<0.05) increase
- peptide hits BMS-PTX-062 (THLE-5B-3A4 [2]): 29
- peptide hits BMS-PTX-120 (THLE-5B-3A4 [2]): 35
- peptide hits BMS-PTX-225 (THLE-5B-3A4 [2]): 10
- peptide hits BMS-PTX-254 (THLE-5B-3A4 [2]): 14
- peptide hits BMS-PTX-260 (THLE-5B-3A4 [2]): 21
- peptide hits BMS-PTX-265 (THLE-5B-3A4 [2]): 49
- peptide hits BMS-PTX-447 (THLE-5B-3A4 [2]): 54
- peptide hits BMS-PTX-459 (THLE-5B-3A4 [2]): 24
- peptide hits BMS-PTX-607 (THLE-5B-3A4 [2]): 13
- peptide hits BMS-PTX-749 (THLE-5B-3A4 [2]): 87
- peptide hits BMS-PTX-808 (THLE-5B-3A4 [2]): 10
- peptide hits BMS-PTX-837 (THLE-5B-3A4 [2]): 15
- peptide hits BMS-PTX-860 (THLE-5B-3A4 [2]): 15
- peptide hits BMS-PTX-(29)147 (THLE-5B-3A4 [2]): 128
- peptide hits BMS-PTX-(39)147 (THLE-5B-3A4 [2]): 24
- IC50 [3]: 8.61 µM
- Toxicity in HHA Cells (HHA Cells; [4]): Toxic
- Toxicity in HHA Cells (HHA Cells; [5]): Toxic

SMILES: CC(C)Cc1ccc(C(C)C(=O)O)cc1 (stereo not shown) [Ibuprofen]
- Toxicity in HHA Cells (HHA Cells; [5]): Non-Toxic

SMILES: C1CCC(C(CC2CCCCN2)C2CCCCC2)CC1 (stereo not shown) [Perhexilene]
- Toxicity in HHA Cells (HHA Cells; [5]): Toxic

SMILES: CCc1ccc(CCOc2ccc(CC3SC(=O)NC3=O)cc2)nc1 (stereo not shown) [Pioglitazone]
- Toxicity in HHA Cells (HHA Cells; [5]): Non-Toxic

SMILES: CCO[C@@H](Cc1ccc(OCCN2c3ccccc3Oc3ccccc32)cc1)C(=O)O [Ragaglitazar]
- Toxicity in HHA Cells (HHA Cells; [5]): Non-Toxic

SMILES: O=C(c1ccc(OCCN2CCCCC2)cc1)c1c(-c2ccc(O)cc2)sc2cc(O)ccc12 [Raloxifene]
- Toxicity in HHA Cells (HHA Cells; [5]): Toxic

SMILES: CC(C)c1nc(CN(C)C(=O)N[C@H](C(=O)N[C@@H](Cc2ccccc2)C[C@H](O)[C@H](Cc2ccccc2)NC(=O)OCc2cncs2)C(C)C)cs1 [Ritonavir]
- Toxicity in HHA Cells (HHA Cells; [4]): Toxic
- Toxicity in HHA Cells (HHA Cells; [5]): Toxic

SMILES: CN(CCOc1ccc(CC2SC(=O)NC2=O)cc1)c1ccccn1 (stereo not shown) [Rosiglitazone]
- Toxicity in HHA Cells (HHA Cells; [4]): Non-Toxic
- Toxicity in HHA Cells (HHA Cells; [5]): Non-Toxic

SMILES: CC/C(=C(\c1ccccc1)c1ccc(OCCN(C)C)cc1)c1ccccc1 [Tamoxifen]
- Toxicity in HHA Cells (HHA Cells; [5]): Toxic

SMILES: CCO[C@@H](Cc1ccc(OCCc2ccc(OS(C)(=O)=O)cc2)cc1)C(=O)O [Tesaglitazar]
- peptide hits BMS-PTX-062 (THLE-5B-3A4 [2]): 1
- peptide hits BMS-PTX-120 (THLE-5B-3A4 [2]): 3
- peptide hits BMS-PTX-225 (THLE-5B-3A4 [2]): 0
- peptide hits BMS-PTX-254 (THLE-5B-3A4 [2]): 1
- peptide hits BMS-PTX-260 (THLE-5B-3A4 [2]): 0
- peptide hits BMS-PTX-265 (THLE-5B-3A4 [2]): 8
- peptide hits BMS-PTX-447 (THLE-5B-3A4 [2]): 6
- peptide hits BMS-PTX-459 (THLE-5B-3A4 [2]): 8
- peptide hits BMS-PTX-607 (THLE-5B-3A4 [2]): 0
- peptide hits BMS-PTX-749 (THLE-5B-3A4 [2]): 6
- peptide hits BMS-PTX-808 (THLE-5B-3A4 [2]): 1
- peptide hits BMS-PTX-837 (THLE-5B-3A4 [2]): 8
- peptide hits BMS-PTX-860 (THLE-5B-3A4 [2]): 0
- peptide hits BMS-PTX-(29)147 (THLE-5B-3A4 [2]): 31
- peptide hits BMS-PTX-(39)147 (THLE-5B-3A4 [2]): 1
- Toxicity in HHA Cells (HHA Cells; [4]): Non-Toxic
- Toxicity in HHA Cells (HHA Cells; [5]): Non-Toxic

SMILES: CN1CCN(CCCN2c3ccccc3Sc3ccc(C(F)(F)F)cc32)CC1 [Trifluoperazine]
- Toxicity in HHA Cells (HHA Cells; [5]): Toxic

SMILES: Cc1c(C)c2c(c(C)c1O)CCC(C)(COc1ccc(CC3SC(=O)NC3=O)cc1)O2 (stereo not shown) [Troglitazone]
- change in levels of BMS-PTX-265 (THLE-5B-3A4 [1]): statistically significant (p<0.05) increase
- peptide hits BMS-PTX-062 (THLE-5B-3A4 [2]): 4
- peptide hits BMS-PTX-120 (THLE-5B-3A4 [2]): 12
- peptide hits BMS-PTX-225 (THLE-5B-3A4 [2]): 11
- peptide hits BMS-PTX-254 (THLE-5B-3A4 [2]): 7
- peptide hits BMS-PTX-260 (THLE-5B-3A4 [2]): 4
- peptide hits BMS-PTX-265 (THLE-5B-3A4 [2]): 66
- peptide hits BMS-PTX-447 (THLE-5B-3A4 [2]): 33
- peptide hits BMS-PTX-459 (THLE-5B-3A4 [2]): 14
- peptide hits BMS-PTX-607 (THLE-5B-3A4 [2]): 7
- peptide hits BMS-PTX-749 (THLE-5B-3A4 [2]): 60
- peptide hits BMS-PTX-808 (THLE-5B-3A4 [2]): 10
- peptide hits BMS-PTX-837 (THLE-5B-3A4 [2]): 17
- peptide hits BMS-PTX-860 (THLE-5B-3A4 [2]): 4
- peptide hits BMS-PTX-(29)147 (THLE-5B-3A4 [2]): 67
- peptide hits BMS-PTX-(39)147 (THLE-5B-3A4 [2]): 19
- IC50 [3]: 32.7 µM
- Toxicity in HHA Cells (HHA Cells; [4]): Toxic
- Toxicity in HHA Cells (HHA Cells; [5]): Toxic
